Values of other authors in US20080241240A1, “COMBINED PHARMACEUTICAL FORMULATION WITH CONTROLLED-RELEASE COMPRISING DIHYDROPYRIDINE CALCIUM CHANNEL BLOCKERS AND HMG-COA REDUCTASE INHIBITORS” (HANALL Pharmaceutical Co., Ltd., priority 2006, published 2008).

Details: orally administered as single pill

- remaining, present in blood: 60%
SMILES: CCOC(=O)C1=C(COCCN)NC(C)=C(C(=O)OC)C1c1ccccc1Cl (stereo not shown) [Amlodipine, 3-ethyl-5-methyl-2-(2-aminoethoxymethyl)-4-(2-chlorophenyl)-1,4-dihydro-6-methyl-3,5-pyridinedicarboxylate]
